Reference: patent US20130065227A1, “METHODS OF INCREASING MACROPINOCYTOSIS IN CANCER CELLS” (priority 2010, published 2013)

Columns and labels:
[1] = system: several cell lines; assay: Annexin V / PI flow cytometry to assess cell death; assay type: cell-based
Experimental: (§1) (A) Trypan blue staining of U937 leukemia cells showing percentage of dead cells (trypan blue positive) over time. (B) U937 cells were untreated (Un) or treated with 1 μM AS1411 (1411) or control oligonucleotide (Ctrl) for 72 h. DNA was extracted, electrophoresed on an agarose gel and stained with ethidium bromide to probe DNA laddering. As a positive control, […] were treated with UV irradiation to induce apoptosis as previously described. […] (D) U937 cells treated as described for panel B, followed by protein extraction and immunoblotting (IB) to detect PARP cleavage and Caspase-3 activation. (E) DU145 prostate cancer cells were incubated with 10 μM of AS1411 for 24 h, or irradiated with UV (300 J/m^2 with UV Stratalinker 2400, Strategene), then cultured in fresh medium for 6 h. Assessment of cell death was carried out by flow cytometry to detect Annexin V-FITC binding and PI staining.

[2] = system: Hs27; assay: Stimulation of macropinocytosis (dextran uptake); assay type: cell-based, human; conditions: Hs27; Non-cancer, skin fibroblasts
Experimental: (Panel A) DU145 cells were treated with 10 μM tAS1411 or 10 μM tCRO or no oligonucleotide in complete DMEM medium at 37° C. for the time indicated. After treatment, cell medium was changed for fresh complete medium containing 0.2 mg/ml dextran-10K labeled with Alexa Fluor 488, and cells were incubated for 30 min at 37° C. After incubation, cells were harvested and analyzed by flow cytometry to determine dextran uptake. (Panel B) The same experiment was performed using Hs27 cells. (Panel C) DU145 cells were treated with 10 μM tAS1411 or 10 μM tCRO or no oligonucleotide in complete DMEM medium at 37° C. for 48 h. […]
AS1411 causes a change in cancer cell morphology that is characterized by vacuolization, irregular nuclei, and swollen cells (Xu et al., 2001, J. Biol. Chem., 276:43221-30). […] To test this idea, DU145 cells were pre-treated for 24 h with tAS1411, then added FL-AS1411 and evaluated uptake after an additional 2 h using flow cytometry. […] This idea is not necessarily inconsistent with the time course data shown in FIG. 1A because the fluorescence signal may decrease over time for a number of reasons, including exocytosis of the ligand and fluorescence quenching due to protein binding or environmental factors (the fluorophore used for flow cytometry is particularly sensitive to acidic environments). […]

[3] = system: DU145 CD24^lo/CD44^hi cells; assay: Spheroid culture; assay type: cell-based; conditions: 10 μM AS1411, drug replenished weekly
Experimental: DU145 CD24^lo/CD44^hi cells were sorted by FACS, plated for sphere culture, and treated with or without 10 μM AS1411. Media was changed and drug replenished weekly. Plates were monitored for dissolution of spheres. Once dissolution was observed, serial photographs were taken of each well and the total number of spheres counted.

[4] = system: MCF7; assay: Stimulation of macropinocytosis (dextran uptake); assay type: cell-based; conditions: MCF7; Cancer, breast
Experimental: (§2) FIG. 10 are graphs showing the stimulation of macropinocytosis by GROs. Breast carcinoma cells (MDA-MB-231, MCF-7) or non-malignant breast epithelial cells (MCF10A) cells were plated 18 hr before treatment with 10 μM tAS1411 or 10 μM tCRO or water in complete DMEM medium at 37° C. for 48 hr or 72 hr. After treatment, cell medium was changed for fresh complete medium containing 0.2 mg/ml dextran-10K labeled with Alexa Fluor 488 and cells were incubated for 30 min at 37° C. Cells were then incubated on ice with 1 mg/ml PI in PBS, harvested, and analyzed by flow cytometry. Uptake was normalized to no pre-treatment controls and bars show the mean and SE of three independent experiments.
(§3) To analyze uptake of the oligodeoxynucleotides or dextran-10K (macropinocytic marker) by flow cytometry, 2×10^5 cells in fresh supplemented culture medium (2.5 ml) were plated into 6-well plates for 18 h. After complete adhesion, the cells were incubated with 5′-FAM tagged oligodeoxynucleotides or Alexa Fluor 488 tagged dextran-10K and incubated as indicated in the Description of the Drawings. Cells were washed once with ice-cold PBS, incubated with 1 μg/ml 7-amino-actinomycin D (7-AAD) for 5 min on ice or 1 μg/ml propidium iodide (PI), and washed twice with ice-cold PBS. Cells were then treated with 0.01% trypsin/0.5 mM EDTA (300 μl) for 3 min prior addition 3 ml supplemented culture medium. The cells were then centrifuged and resuspended in 0.5 ml of 1% paraformaldehyde for analysis by flow cytometry using a FACScalibur cytometer (BD Biosciences, Mountain View, Calif.).
(§4) AS1411 causes a change in cancer cell morphology that is characterized by vacuolization, irregular nuclei, and swollen cells (Xu et al., 2001, J. Biol. Chem., 276:43221-30). Therefore, the effect of AS1411 on macropinocytosis in DU145 cells and non-malignant Hs27 cells was investigated. […] As in all of the flow cytometry experiments, cells were gated to exclude permeable cells, discounting the possibility that this increase was due to cell death. […] One implication of the finding that AS1411 causes hyperstimulation of macropinocytosis is that treatment of AS1411 might actually promote its own internalization by cancer cells. To test this idea, DU145 cells were pre-treated for 24 h with tAS1411, then added FL-AS1411 and evaluated uptake after an additional 2 h using flow cytometry. […] This idea is not necessarily inconsistent with the time course data shown in FIG. 1A because the fluorescence signal may decrease over time for a number of reasons, including exocytosis of the ligand and fluorescence quenching due to protein binding or environmental factors (the fluorophore used for flow cytometry is particularly sensitive to acidic environments). […]

[5] = system: MDA-MB-231; assay: Stimulation of macropinocytosis (dextran uptake); assay type: cell-based; conditions: MDA-MB-231; Cancer, breast
Experimental: as §2, §3, §4

[6] = system: U937 leukemia cells; assay: Cell death mechanism (DNA laddering, immunoblotting, electron microscopy); assay type: cell-based
Experimental: as §1

[7] = system: cancer cells; assay: Stimulation of macropinocytosis / induced uptake; assay type: cell-based
Excerpt: A number of additional G-rich oligonucleotides were obtained and used to evaluate whether or not macropinocytosis was increased in cancer cells using the methodology described herein. For example, the following sequences were used:
In addition, the G-rich oligonucleotides disclosed in Dapic et al. (2003, Nuc. Acids Res.,31:2097 -107; KS-A though KS-I) and the G-rich oligonucleotides (e.g., telomere homologs, GT oligonucleotides, Stat3 binders, Dz13, and triplex oligonucleotides with aptameric effects) disclosed in Bates et al. (2009, Exp. Mol. Path., 86:151-64) and references therein are shown to stimulate macropinocytosis in cancer cells.
Furthermore, due to the unique properties of MPsomes, delivery by MP leads to increased functional activity. Thus, treatment with AS1411, followed by administration of an anticancer siRNA, for example, leads to a synergistic increase in anticancer effects without harming normal cells. Another strategy to potentiate the effects of AS1411 is to combine it with agents that promote MP and activation of Rac. This leads to increased macropinocytic uptake of AS1411 and/or enhanced methuosis.

Question: What does the source list for “5′-d(GGTGGTGGTGGTTGTGGTGGTGGTGG) [AS1411]”?
Answer: Annexin V / PI quadrant in which cells appear [1]: Annexin V-positive/propidium iodide (PI)-positive quadrant (indicative of necrosis); Stimulate MP? [2]: No; effect on spheroids [3]: can cause disintegration of spheroids; Stimulate MP? [4]: Yes; Stimulate MP? [5]: Yes; effect on DNA replication and cell division [6]: inhibited DNA replication and cell division; effect on protein synthesis [6]: not inhibited; induction of apoptosis markers ([6]; 1 μM, 72 h, UV irradiation as positive control): does not induce DNA laddering, PARP cleavage, or Caspase-3 activation; cell death morphology in electron micrographs ([6]; 72 h): necrosis-like cell death; induced uptake from the culture medium after pre-treatment [7]: induced uptake of dextran, AS1411, or transferrin (by MP)
